From PubChem BioAssay (NCI)
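Step 1: Grow cells in 96-well plates. Step 2: Expose to compound for 48 hours at 5 concentrations. Step 3: Interpolate endpoints linearly; if unreached, use highest concentration. TGI: concentration producing complete growth inhibition.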

Tests used:
Assay in all cases: inhibition of tumour cell growth, NCI panel, 48 h
NCI-H522 lung = tested on: NCI-H522 lung
HCT-116 colon = tested on: HCT-116 colon
NCI-H226 lung = tested on: NCI-H226 lung
HL-60(TB) leukemia = tested on: HL-60(TB) leukemia
CCRF-CEM leukemia = tested on: CCRF-CEM leukemia
UO-31 renal = tested on: UO-31 renal
SK-MEL-2 melanoma = tested on: SK-MEL-2 melanoma
TK-10 renal = tested on: TK-10 renal
HOP-62 NSCLC = tested on: HOP-62 NSCLC
SNB-19 CNS = tested on: SNB-19 CNS
KM12 colon = tested on: KM12 colon
SK-MEL-28 melanoma = tested on: SK-MEL-28 melanoma
IGROV1 ovarian = tested on: IGROV1 ovarian
HCT-15 colon = tested on: HCT-15 colon
UACC-62 melanoma = tested on: UACC-62 melanoma
DU-145 prostate = tested on: DU-145 prostate
SF-295 CNS = tested on: SF-295 CNS
ACHN renal = tested on: ACHN renal
SN12C renal = tested on: SN12C renal
MDA-N = tested on: MDA-N
A549 NSCLC = tested on: A549 NSCLC
MCF7 breast = tested on: MCF7 breast
NCI-H460 lung = tested on: NCI-H460 lung
SF-268 CNS = tested on: SF-268 CNS
OVCAR-3 ovarian = tested on: OVCAR-3 ovarian
MDA-MB-435 = tested on: MDA-MB-435
M14 melanoma = tested on: M14 melanoma
OVCAR-8 ovarian = tested on: OVCAR-8 ovarian
MALME-3M melanoma = tested on: MALME-3M melanoma
HT29 colon = tested on: HT29 colon
K-562 leukemia = tested on: K-562 leukemia
SNB-75 CNS = tested on: SNB-75 CNS
COLO 205 colon = tested on: COLO 205 colon
BT-549 breast = tested on: BT-549 breast
T-47D breast = tested on: T-47D breast
U251 CNS = tested on: U251 CNS
OVCAR-4 ovarian = tested on: OVCAR-4 ovarian
RXF 393 renal = tested on: RXF 393 renal
SF-539 CNS = tested on: SF-539 CNS
786-0 renal = tested on: 786-0 renal
MOLT-4 leukemia = tested on: MOLT-4 leukemia
MDA-MB-231 breast = tested on: MDA-MB-231 breast
HOP-92 NSCLC = tested on: HOP-92 NSCLC
SK-MEL-5 melanoma = tested on: SK-MEL-5 melanoma
HS 578T breast = tested on: HS 578T breast
RPMI-8226 leukemia = tested on: RPMI-8226 leukemia
NCI-H23 lung = tested on: NCI-H23 lung
SR leukemia = tested on: SR leukemia
SW-620 colon = tested on: SW-620 colon
HCC-2998 colon = tested on: HCC-2998 colon
LOX IMVI melanoma = tested on: LOX IMVI melanoma
NCI/ADR-RES ovarian = tested on: NCI/ADR-RES ovarian
CAKI-1 renal = tested on: CAKI-1 renal
SK-OV-3 ovarian = tested on: SK-OV-3 ovarian
UACC-257 melanoma = tested on: UACC-257 melanoma
EKVX NSCLC = tested on: EKVX NSCLC
PC-3 prostate = tested on: PC-3 prostate
OVCAR-5 ovarian = tested on: OVCAR-5 ovarian
A498 renal = tested on: A498 renal

COc1ccccc1CNCCCCCNCCCCCCCCCCNCCCCCNCc1ccccc1OC
TGI (NCI-H522 lung): 42.2 µM | TGI (HCT-116 colon): 24.1 µM | TGI (NCI-H226 lung): 34.3 µM | TGI (HL-60(TB) leukemia): 43.7 µM | TGI (CCRF-CEM leukemia): 32.4 µM | TGI (UO-31 renal): > 100 µM | TGI (SK-MEL-2 melanoma): 34.7 µM | TGI (TK-10 renal): > 100 µM | TGI (HOP-62 NSCLC): 31.8 µM | TGI (SNB-19 CNS): > 100 µM | TGI (KM12 colon): 58.4 µM | TGI (SK-MEL-28 melanoma): > 100 µM | TGI (IGROV1 ovarian): 45 µM | TGI (HCT-15 colon): > 100 µM | TGI (UACC-62 melanoma): > 100 µM | TGI (DU-145 prostate): 33.5 µM | TGI (SF-295 CNS): > 100 µM | TGI (ACHN renal): > 100 µM | TGI (SN12C renal): 79.6 µM | TGI (MDA-N): 34.5 µM | TGI (A549 NSCLC): 58.8 µM | TGI (MCF7 breast): 32.7 µM | TGI (NCI-H460 lung): 26.8 µM | TGI (SF-268 CNS): > 100 µM | TGI (OVCAR-3 ovarian): > 100 µM | TGI (MDA-MB-435): > 100 µM | TGI (M14 melanoma): > 100 µM | TGI (OVCAR-8 ovarian): 77.7 µM | TGI (MALME-3M melanoma): 61.3 µM | TGI (HT29 colon): > 100 µM | TGI (K-562 leukemia): 31.7 µM | TGI (SNB-75 CNS): 70.3 µM | TGI (COLO 205 colon): > 100 µM | TGI (BT-549 breast): 45.5 µM | TGI (T-47D breast): > 100 µM | TGI (U251 CNS): 32.9 µM | TGI (OVCAR-4 ovarian): > 100 µM | TGI (RXF 393 renal): 96.3 µM | TGI (SF-539 CNS): 21.2 µM | TGI (786-0 renal): 42.1 µM | TGI (MOLT-4 leukemia): 26.5 µM | TGI (MDA-MB-231 breast): 31.6 µM | TGI (HOP-92 NSCLC): > 100 µM | TGI (SK-MEL-5 melanoma): > 100 µM | TGI (HS 578T breast): 5.78 µM | TGI (RPMI-8226 leukemia): > 100 µM | TGI (NCI-H23 lung): > 100 µM | TGI (SR leukemia): 32.2 µM | TGI (SW-620 colon): > 100 µM | TGI (HCC-2998 colon): 39.2 µM | TGI (LOX IMVI melanoma): 30.3 µM

O=C1c2ccccc2CC12CCC1(CC2)OCCO1
TGI (NCI/ADR-RES ovarian): > 100 µM | TGI (NCI-H522 lung): > 100 µM | TGI (HCT-116 colon): > 100 µM | TGI (CAKI-1 renal): > 100 µM | TGI (NCI-H226 lung): > 100 µM | TGI (HL-60(TB) leukemia): > 100 µM | TGI (CCRF-CEM leukemia): > 100 µM | TGI (SK-OV-3 ovarian): > 100 µM | TGI (UO-31 renal): > 100 µM | TGI (SK-MEL-2 melanoma): > 100 µM | TGI (TK-10 renal): > 100 µM | TGI (UACC-257 melanoma): > 100 µM | TGI (HOP-62 NSCLC): > 100 µM | TGI (SNB-19 CNS): > 100 µM | TGI (KM12 colon): > 100 µM | TGI (SK-MEL-28 melanoma): > 100 µM | TGI (IGROV1 ovarian): > 100 µM | TGI (HCT-15 colon): > 100 µM | TGI (UACC-62 melanoma): > 100 µM | TGI (DU-145 prostate): > 100 µM | TGI (SF-295 CNS): > 100 µM | TGI (ACHN renal): > 100 µM | TGI (SN12C renal): > 100 µM | TGI (MDA-N): > 100 µM | TGI (A549 NSCLC): > 100 µM | TGI (MCF7 breast): > 100 µM | TGI (NCI-H460 lung): > 100 µM | TGI (SF-268 CNS): > 100 µM | TGI (EKVX NSCLC): > 100 µM | TGI (M14 melanoma): > 100 µM | TGI (OVCAR-8 ovarian): > 100 µM | TGI (MALME-3M melanoma): > 100 µM | TGI (HT29 colon): > 100 µM | TGI (K-562 leukemia): > 100 µM | TGI (SNB-75 CNS): > 100 µM | TGI (COLO 205 colon): > 100 µM | TGI (BT-549 breast): > 100 µM | TGI (T-47D breast): > 100 µM | TGI (PC-3 prostate): > 100 µM | TGI (U251 CNS): > 100 µM | TGI (OVCAR-4 ovarian): > 100 µM | TGI (RXF 393 renal): > 100 µM | TGI (SF-539 CNS): > 100 µM | TGI (786-0 renal): > 100 µM | TGI (MOLT-4 leukemia): > 100 µM | TGI (MDA-MB-231 breast): > 100 µM | TGI (HS 578T breast): > 100 µM | TGI (RPMI-8226 leukemia): > 100 µM | TGI (NCI-H23 lung): > 100 µM | TGI (OVCAR-5 ovarian): > 100 µM | TGI (SR leukemia): > 100 µM | TGI (SW-620 colon): > 100 µM | TGI (HCC-2998 colon): > 100 µM | TGI (LOX IMVI melanoma): > 100 µM

CCCCNC(=O)OCCN=C1c2ccccc2C(Br)C(Br)c2ccccc21 (configuration not stated)
TGI (NCI/ADR-RES ovarian): 47.2 µM | TGI (NCI-H522 lung): 73 µM | TGI (HCT-116 colon): 60.5 µM | TGI (CAKI-1 renal): 49.2 µM | TGI (NCI-H226 lung): > 100 µM | TGI (HL-60(TB) leukemia): 37.6 µM | TGI (CCRF-CEM leukemia): > 100 µM | TGI (SK-OV-3 ovarian): > 100 µM | TGI (SK-MEL-2 melanoma): > 100 µM | TGI (TK-10 renal): 52.2 µM | TGI (UACC-257 melanoma): 76.2 µM | TGI (HOP-62 NSCLC): > 100 µM | TGI (SNB-19 CNS): 55.3 µM | TGI (KM12 colon): > 100 µM | TGI (SK-MEL-28 melanoma): > 100 µM | TGI (IGROV1 ovarian): > 100 µM | TGI (HCT-15 colon): 38.2 µM | TGI (UACC-62 melanoma): > 100 µM | TGI (A498 renal): > 100 µM | TGI (DU-145 prostate): > 100 µM | TGI (SF-295 CNS): > 100 µM | TGI (ACHN renal): 62.4 µM | TGI (SN12C renal): > 100 µM | TGI (MDA-N): 31.7 µM | TGI (A549 NSCLC): > 100 µM | TGI (MCF7 breast): > 100 µM | TGI (NCI-H460 lung): > 100 µM | TGI (SF-268 CNS): > 100 µM | TGI (EKVX NSCLC): > 100 µM | TGI (OVCAR-3 ovarian): 46.1 µM | TGI (MDA-MB-435): 57 µM | TGI (M14 melanoma): 40.2 µM | TGI (OVCAR-8 ovarian): 58.9 µM | TGI (MALME-3M melanoma): 52.9 µM | TGI (HT29 colon): 58.3 µM | TGI (K-562 leukemia): > 100 µM | TGI (SNB-75 CNS): > 100 µM | TGI (COLO 205 colon): 44.7 µM | TGI (T-47D breast): > 100 µM | TGI (PC-3 prostate): > 100 µM | TGI (U251 CNS): 62.5 µM | TGI (OVCAR-4 ovarian): 59.6 µM | TGI (RXF 393 renal): 34.8 µM | TGI (SF-539 CNS): > 100 µM | TGI (786-0 renal): 28.3 µM | TGI (MOLT-4 leukemia): 84.1 µM | TGI (MDA-MB-231 breast): > 100 µM | TGI (HOP-92 NSCLC): 37.1 µM | TGI (SK-MEL-5 melanoma): 50.3 µM | TGI (HS 578T breast): > 100 µM | TGI (RPMI-8226 leukemia): 62.1 µM | TGI (NCI-H23 lung): > 100 µM | TGI (OVCAR-5 ovarian): > 100 µM | TGI (SR leukemia): > 100 µM | TGI (SW-620 colon): > 100 µM | TGI (HCC-2998 colon): > 100 µM | TGI (LOX IMVI melanoma): 47.2 µM
